Read-outs that look alike come from different tables or passages of the source.
Assays:
Assay type in all cases: cell-based, human
OVCAR-4 = experiment: NCI-60 screening (SRB); details: five-dose
NCI-H322M = experiment: NCI-60 screening (SRB); details: five-dose
A549/ATCC = experiment: NCI-60 screening (SRB); details: five-dose
HOP-92 = experiment: NCI-60 screening (SRB); details: five-dose
COLO 205 = experiment: NCI-60 screening (SRB); details: five-dose
NCI-H226 = experiment: NCI-60 screening (SRB); details: five-dose
NCI-H460 = experiment: NCI-60 screening (SRB); details: five-dose
HCT-15 = experiment: NCI-60 screening (SRB); details: five-dose
MDA-MB-31/ATCC = experiment: NCI-60 screening (SRB); details: five-dose
SNB-19 = experiment: NCI-60 screening (SRB); details: five-dose
OVCAR-8 = experiment: NCI-60 screening (SRB); details: five-dose
UO-31 = experiment: NCI-60 screening (SRB); details: five-dose
NCI/ADR-RES = experiment: NCI-60 screening (SRB); details: five-dose
SK-MEL-28 = experiment: NCI-60 screening (SRB); details: five-dose
PC-3 = experiment: NCI-60 screening (SRB); details: five-dose
NCI-H522 = experiment: NCI-60 screening (SRB); details: five-dose
NCI-H23 = experiment: NCI-60 screening (SRB); details: five-dose
OVCAR-5 = experiment: NCI-60 screening (SRB); details: five-dose
SF-539 = experiment: NCI-60 screening (SRB); details: SF-539, five-dose
BT-549 = experiment: NCI-60 screening (SRB); details: five-dose
SF-295 = experiment: NCI-60 screening (SRB); details: five-dose
EKVX = experiment: NCI-60 screening (SRB); details: five-dose
OVCAR-3 = experiment: NCI-60 screening (SRB); details: five-dose
[1] = test system: NCI-60 cancer cell line panel; experiment: NCI-60 screening (SRB), full panel; details: for activity at 10 µM: 60 cell lines, 48 h
Source text: The experimental data allow the assessment of the cytostatic effect, indicated by growth inhibition values ranging between 0 and 100, as well as of the cytotoxic effect, indicated by negative values.
The mean GI50 (molar concentration of the compound that inhibits 50% net cell growth), TGI (molar concentration of the compound leading to the total inhibition), and LC50 (molar concentration of the compound leading to 50% net cell death (presented in negative logarithm)) values across each cell line are shown in Table 2.
The selectivity index (SI), calculated as the ratio between the full panel MG_MID60 (μM) of compounds 4, 6, and 9 by their respective subpanels MG_MID of the cell line (μM), was introduced as a quantification tool for the selectivity of each compound in terms of anticancer effect (Table 3).
Primary anticancer assays were performed according to the NCI protocol, as described elsewhere (see e.g., http://dtp.nci.nih.gov accessed on 1 November 2018). The compounds were added at a single concentration, and the cell cultures were incubated for 48 h. The end point determinations were made with a protein-binding dye, sulforhodamine B (SRB). […] The percentage of growth was evaluated spectrophotometrically versus controls not treated with test agents after 48 h exposure and using SRB protein assay to estimate cell viability or growth. Three antitumor activity dose-response parameters were calculated for each cell line. Furthermore, mean graph midpoints (MG_MID) were calculated for each of the parameters, giving an average activity parameter over all cell lines for the tested compound. For the MG_MID calculation, insensitive cell lines were included with the highest concentration tested.

RXF 393 = experiment: NCI-60 screening (SRB); details: five-dose
UACC-62 = experiment: NCI-60 screening (SRB); details: five-dose
SF-268 = experiment: NCI-60 screening (SRB); details: five-dose
[2] = Homo sapiens, read-out: LC50 (the source's name)

With `CCN1CCN(C(=O)[C@]23CC[C@@H](C)[C@H](C)[C@H]2C2=CC[C@@H]4[C@@]5(C)C/C(=C/c6cccnc6)C(=O)C(C)(C)[C@@H]5CC[C@@]4(C)[C@]2(C)CC3)CC1` [Compound 9, N-(2-{3-Pyridinylidene}-3-oxoursan-12-en-28-oyl)-ethylpiperazine] as the molecule, how does the GI50 (OVCAR-4; Homo sapiens) read?
The GI50 was 2.57 µM.

What about the CC50 (OVCAR-4; [2]) of the same molecule?
Its CC50 is 36.6 µM.

What about the TGI (OVCAR-4) of the same molecule?
Its TGI is 7.36 µM.

And the GI50 (NCI-H322M; Homo sapiens)?
The GI50 was 2.28 µM.

And the CC50 (NCI-H322M; [2])?
Its CC50 is 28.8 µM.

And the TGI (NCI-H322M)?
The TGI was 8.27 µM.

What about the GI50 (A549/ATCC; Homo sapiens) of the same molecule?
The GI50 was 3.15 µM.

What about the CC50 (A549/ATCC; [2]) of the same molecule?
Its CC50 is > 100 µM.

What about the TGI (A549/ATCC) of the same molecule?
Its TGI is 16.8 µM.

What about the GI50 (HOP-92; Homo sapiens) of the same molecule?
Its GI50 is 1.57 µM.

What about the CC50 (HOP-92; [2]) of the same molecule?
The CC50 was 38.8 µM.

And the TGI (HOP-92)?
Its TGI is 5.73 µM.

What about the GI50 (COLO 205; Homo sapiens) of the same molecule?
The GI50 was 2.19 µM.

What about the CC50 (COLO 205; [2]) of the same molecule?
Its CC50 is > 100 µM.

What about the TGI (COLO 205) of the same molecule?
The TGI was 5.12 µM.

And the GI50 (NCI-H226; Homo sapiens)?
The GI50 was 1.89 µM.

And the CC50 (NCI-H226; [2])?
Its CC50 is 8.78 µM.

What about the TGI (NCI-H226) of the same molecule?
The TGI was 4.07 µM.

What about the GI50 (NCI-H460; Homo sapiens) of the same molecule?
Its GI50 is 1.78 µM.

What about the CC50 (NCI-H460; [2]) of the same molecule?
The CC50 was 6.69 µM.

And the TGI (NCI-H460)?
The TGI was 3.45 µM.

What about the GI50 (HCT-15; Homo sapiens) of the same molecule?
The GI50 was 1.66 µM.

What about the CC50 (HCT-15; [2]) of the same molecule?
The CC50 was 6.41 µM.

What about the TGI (HCT-15) of the same molecule?
The TGI was 3.26 µM.

What about the GI50 (MDA-MB-31/ATCC; Homo sapiens) of the same molecule?
The GI50 was 1.75 µM.

What about the CC50 (MDA-MB-31/ATCC; [2]) of the same molecule?
The CC50 was 7.39 µM.

What about the TGI (MDA-MB-31/ATCC) of the same molecule?
The TGI was 3.59 µM.

What about the GI50 (SNB-19; Homo sapiens) of the same molecule?
The GI50 was 1.79 µM.

And the CC50 (SNB-19; [2])?
Its CC50 is 7.82 µM.

And the TGI (SNB-19)?
Its TGI is 3.74 µM.

What about the GI50 (OVCAR-8; Homo sapiens) of the same molecule?
The GI50 was 2.32 µM.

And the CC50 (OVCAR-8; [2])?
Its CC50 is > 100 µM.

And the TGI (OVCAR-8)?
The TGI was 6.29 µM.

And the GI50 (UO-31; Homo sapiens)?
The GI50 was 1.36 µM.

And the CC50 (UO-31; [2])?
Its CC50 is 5.19 µM.

What about the TGI (UO-31) of the same molecule?
Its TGI is 2.65 µM.

What about the GI50 (NCI/ADR-RES; Homo sapiens) of the same molecule?
The GI50 was 1.59 µM.

And the CC50 (NCI/ADR-RES; [2])?
Its CC50 is 6.91 µM.

What about the TGI (NCI/ADR-RES) of the same molecule?
The TGI was 3.31 µM.

And the GI50 (SK-MEL-28; Homo sapiens)?
Its GI50 is 1.74 µM.

What about the CC50 (SK-MEL-28; [2]) of the same molecule?
Its CC50 is 5.69 µM.

What about the TGI (SK-MEL-28) of the same molecule?
Its TGI is 3.15 µM.

And the GI50 (PC-3; Homo sapiens)?
Its GI50 is 1.49 µM.

And the CC50 (PC-3; [2])?
Its CC50 is 9.92 µM.

And the TGI (PC-3)?
Its TGI is 3.85 µM.

And the GI50 (NCI-H522; Homo sapiens)?
The GI50 was 1.66 µM.

And the TGI (NCI-H522)?
The TGI was 3.86 µM.

What about the GI50 (NCI-H23; Homo sapiens) of the same molecule?
The GI50 was 2.13 µM.

What about the CC50 (NCI-H23; [2]) of the same molecule?
The CC50 was 31.8 µM.

And the TGI (NCI-H23)?
Its TGI is 5.91 µM.

What about the GI50 (OVCAR-5; Homo sapiens) of the same molecule?
The GI50 was 1.54 µM.

And the CC50 (OVCAR-5; [2])?
Its CC50 is 5.57 µM.

And the TGI (OVCAR-5)?
Its TGI is 2.93 µM.

And the GI50 (SF-539; Homo sapiens)?
Its GI50 is 1.66 µM.

And the CC50 (SF-539; [2])?
Its CC50 is 5.58 µM.

And the TGI (SF-539)?
Its TGI is 3.05 µM.

What about the GI50 (BT-549; Homo sapiens) of the same molecule?
The GI50 was 1.69 µM.

And the TGI (BT-549)?
Its TGI is 3.59 µM.

What about the GI50 (SF-295; Homo sapiens) of the same molecule?
Its GI50 is 1.63 µM.

And the CC50 (SF-295; [2])?
The CC50 was 5.7 µM.

What about the TGI (SF-295) of the same molecule?
The TGI was 3.05 µM.

What about the GI50 (EKVX; Homo sapiens) of the same molecule?
Its GI50 is 2.17 µM.

And the LC50 (EKVX; Homo sapiens)?
The LC50 was 61.7 µM.

What about the TGI (EKVX) of the same molecule?
Its TGI is 7.32 µM.

What about the GI50 (OVCAR-3; Homo sapiens) of the same molecule?
The GI50 was 1.65 µM.

And the CC50 (OVCAR-3; [2])?
Its CC50 is 6.17 µM.

What about the TGI (OVCAR-3) of the same molecule?
Its TGI is 3.19 µM.

And the “Positive Cytostatic Effect (cell lines with percent growth 0 to 50 / total)” value ([1]; 1 dose 10 µM)?
Its value is 33/59.

And the “Positive Cytotoxic Effect (cell lines with percent growth <0 / total)” value ([1]; 1 dose 10 µM)?
The value was 5/59.

And the GI50 ([1]; Homo sapiens, five-dose, bound, read-out: GI50 against all human tumor cells)?
The GI50 was < 4 µM.

What about the GI50 ([1]; Homo sapiens, mean graph midpoint, full panel, five-dose, read-out: GI50 MG_MID60) of the same molecule?
Its GI50 is 1.93 µM.

And the CC50 ([1]; Homo sapiens, mean graph midpoint, full panel, five-dose, read-out: LC50 MG_MID60)?
Its CC50 is 38 µM.

And the activity at 10 µM ([1]; Homo sapiens, 1 dose 10 µM, read-out: Mean Growth, %)?
The activity at 10 µM was 25.3%.

What about the activity at 10 µM ([1]; Homo sapiens, 1 dose 10 µM, read-out: Range of Growth, %) of the same molecule?
Its activity at 10 µM is -38.2 to 65.7%.

And the “TGI MG_MID60” value ([1]; mean graph midpoint, full panel, five-dose)?
The value was 5.29 µM.

What about the selectivity class ([1]; toward some individual cell lines at the LC50 level) of the same molecule?
The selectivity class was “moderate selectivity (Ratios between 3 and 6 are indicators of moderate selectivity)”.

And the GI50 (RXF 393; Homo sapiens)?
The GI50 was 1.45 µM.

And the CC50 (RXF 393; [2])?
Its CC50 is 5.53 µM.

What about the TGI (RXF 393) of the same molecule?
The TGI was 2.83 µM.

What about the GI50 (UACC-62; Homo sapiens) of the same molecule?
Its GI50 is 1.51 µM.

What about the CC50 (UACC-62; [2]) of the same molecule?
The CC50 was 5.8 µM.

What about the TGI (UACC-62) of the same molecule?
The TGI was 2.96 µM.

And the GI50 (SF-268; Homo sapiens)?
The GI50 was 1.77 µM.

And the CC50 (SF-268; [2])?
The CC50 was 9.15 µM.

What about the TGI (SF-268) of the same molecule?
The TGI was 4.02 µM.

From publication PMC8536124 (International Journal of Molecular Sciences, 2021)
